Test results from patent publication US20030134859A1 (SANKYO COMPANY, LIMITED, priority 2000, published 2003).

How the values were obtained:
[1] = test system: Mouse preadipocyte strain 3T3-L1; test: Inhibition of differentiation as an indication of acetic acid uptake; format: cell-based; conditions: Mus musculus, 3T3-L1, 0.1 μM test substance, control (0.01% dimethylsulfoxide) = 100%, read-out: Rate of Uptake (%) of [2-14C] acetic acid
Method in brief: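 Confluent 3T3-L1 cells induced to differentiate for 4 days (insulin, IBMX, dexamethasone, 5% FBS) with test compound at 0.1 μM final or 0.01% DMSO, then 2 days in insulin maintenance medium, at 37 °C, 10% CO2. [2-14C]acetic acid uptake over 1 hr counted by scintillation; expressed as % of DMSO control.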

[2] = test system: human colon cancer cells COL-2-JCK; test: Inhibition of colony forming activity in human colon cancer cells; format: cell-based; conditions: Homo sapiens, 240 h; 1 μM test compound; 10 days; sum of colony areas vs control; read-out: Inhibition Rate (%) against the colony forming activity
Method in brief: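 COL-2-JCK cells seeded at 300 cells/well and grown 10 days at 37 °C, 5% CO2 with compound at 1 μM final (0.1% DMSO). Colonies stained with crystal violet in formalin; inhibition % = (1 − treated/control colony area)×100.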

Row | Structure (SMILES) | activity at 0.1 µM [1] | inhibition at 1 µM [2]
1 | Cc1csc(NC(=O)c2cc([N+](=O)[O-])ccc2Cl)n1 [Example 3, N-(4-Methylthiazol-2-yl)-(2-chloro-5-nitrophenyl)carboxamide] | 68.9% | 27%
2 | O=C(Nc1nc2ccc(Cc3ccc(F)cc3)cc2s1)c1cc([N+](=O)[O-])ccc1Cl [Example 90, N-[6-(4-Fluorobenzyl)benzothiazol-2-yl]-(2-chloro-5-nitrophenyl)carboxamide] | 60.5% | 47%
